Tests used:
[1] = molecular target: T1, Protein A-SQV-2 fusion protein (Caenorhabditis elegans, UniProt Q9N491); test: Galactosyltransferase II assay, acceptor substrate specificity; assay type: biochemical, C. elegans; settings: for acceptor for glycosylation by SQV-2: UDP-[3H]galactose with various acceptor substrates; for Enzyme Activity: acceptor 5 mM, donor UDP-[3H]galactose
T1 construct: protein A (modified, secreted); made in house; host or cells: COS7 cells, transient transfection; purified from culture supernatant on IgG-agarose
Description: We assayed a recombinant Protein A-SQV-2 fusion protein expressed in COS7 cells for galactosyltransferase II activity.
Galactosyltransferase activity was assayed in vitro using UDP-[^3H]galactose together with various acceptor substrates.
A sqv-2 coding sequence encoding amino acids 25 to 330 of SQV-2, thus lacking the transmembrane domain at the amino terminus, was cloned into pDEST-CMV-protA vector as follows. The oligonucleotides 5′-[…]-3′ (SEQ ID NO:45) and 5′-[…]-3′ (SEQ ID NO:46) were used as the primers for PCR-amplification, and the resulting product was digested with EcoRI and XhoI and cloned into pENTR3C. The Gateway LR cloning reaction (Invitrogen) was used to transfer the sqv-2 ORF lacking TM into the Gateway destination vector pDEST-CMV-protA to generate a modified amino-terminal protein A fusion protein using the CMV promoter. The plasmid pDEST-CMV-protA was constructed by cloning the Gateway C.1 reading frame cassette, from the manufacturer, into pRK5F10ProteinA (Wei et al., Proc. Natl. Acad. Sci. USA 90:3885-8, 1993), which was digested with EcoRI and blunted using dNTPs, Klenow fragment and T4 DNA polymerase. This plasmid was designed to express a secreted protein A-SQV-2 (amino acids 25-330) fusion protein in mammalian cells.
COS7 cells were transiently transfected with pDEST-CMV-protA-sqv-2 using LIPOFECTAMINE (3:1 (w/w) liposome formulation of the polycationic lipid 2,3-dioleyloxy-N-[2(sperminecarboxamido)ethyl]-N,N-dimethyl-1-propanaminium trifluoroacetate (DOSPA) (Chemical Abstracts Registry name: N-[2-(2,5-bis[(3-aminopropyl)amino]-1-oxpentyl}amino)ethyl]-N,N-dimethyl-2,3-bis(9-octadecenyloxy)-1-propanaminium trifluoroacetate), and the neutral lipid dioleoyl phosphatidylethanolamine (DOPE) in membrane filtered water) (Life Technologies) in accordance with the manufacturer's instructions. […] After seventy-two hours of incubation, the fusion protein was recovered and purified from the cell culture supernatant by affinity chromatography using IgG-agarose (Wei et al., Proc. Natl. Acad. Sci. USA 90:3885-8, 1993).
Galactosyltransferase II activity was assayed using UDP-[1-^3H]Gal (NEN Life Sciences Products, 12.8 Ci/mmol) and various mono- and di-saccharide acceptor substrates, including Xylβ-O-benzyl (Bn), Xylβ-O-naphthol, Galβ-O-naphthalenemethanol (NM), GalNAcβ-O-NM, GlcNAcβ-O-NM, Galβ,14Xylβ-O-Bn, Galβ1,3GlcNAc α-O-NM, Galβ1,3Galβ-O-NM, Galβ1,4GlcNAcβ-O-NM, Galβ1,3GlcNAcβ-O-NM, GlcNAcβ1,3Galβ-O-NM, Manaα,1,6Man α-O-decenyl (Lugemwa et al., J. Biol. Chem. 271:19159-65, 1996; Sarkar et al., Carbohydr Res 329:221-33, 2000; Brown et al., Bioorg. Med. Chem. 9:815-24, 2001). […] After incubation at room temperature for 3 hours, the reaction products were diluted with 1 mL of 0.5 M NaCl and applied to a Sep-Pak C18 (100 mg; Waters). After washing with 5 ml of 0.5 M NaCl and water, the radiolabeled products were eluted with 50% methanol, dried and counted by liquid scintillation.

SQV-4 [2] = molecular target: T2, SQV-4 (Caenorhabditis elegans, UniProt Q19905, T2A); assay type: biochemical, C. elegans; settings: for NAD+ reduction: UDP-glucose replaced, 100 μM NAD+ and 250 μM nucleotide sugar
T2 construct: were used for PCR-amplification of the sqv-4 ORF, and the resulting product was digested with NcoI and XhoI and cloned into pET21d; made in house; host or cells: E. coli BL21 pLysS, pET21d; soluble fraction used without purification
From the text: (§1) The sqv-4 coding sequences corresponding to the wild-type, n2827, and n2840 alleles were cloned into the pET21d E. coli expression vector and transformed into BL21 pLysS. The oligonucleotides 5′-[…]-3′ (SEQ ID NO:53) and 5′-[…]-3′ (SEQ ID NO:54) were used to generate R353H n2827 and T4101 n2840 mutations, respectively, by site-directed mutagenesis. The oligonucleotides 5′-[…]-3′ (SEQ ID NO:55) and 5′-[…]-3′ (SEQ ID NO:56) were used for PCR-amplification of the sqv-4 ORF, and the resulting product was digested with NcoI and XhoI and cloned into pET21d. All three proteins have a threonine to alanine mutation in the second amino acid because of the addition of an NcoI site at the 5′ end. SQV-4 expression was induced by incubation with 1 mM IPTG for three to four hours at 37° C. E. coli were pelleted and resuspended in 50 mM Tris-HCl pH 7.5, 1 mM DTT, 1 mM EDTA, 1 mM PMSF, 2 μg/ml pepstatin A, and aprotinin and lysed using a French pressure cell. The soluble fraction was separated from the insoluble inclusion bodies by centrifugation at 12,000 g for 20 minutes.
(§2) All assays were performed at room temperature (20 to 22° C.) in 50 mM Tris-HCl, 2 mM dithiothrietol (DTT), pH 8.7. The initial velocity of the reaction was determined from time points during the first 60 seconds after addition of the SQV-4 extract.

[3] = molecular target: UDP-glucose dehydrogenase (Escherichia coli, UniProt P76373); settings: cited from earlier work
[4] = molecular target: T3, chicken UDP-glucose dehydrogenase (Gallus gallus, UniProt Q5F3T9); settings: cited from earlier work
T3 sequence (Q5F3T9 1-494): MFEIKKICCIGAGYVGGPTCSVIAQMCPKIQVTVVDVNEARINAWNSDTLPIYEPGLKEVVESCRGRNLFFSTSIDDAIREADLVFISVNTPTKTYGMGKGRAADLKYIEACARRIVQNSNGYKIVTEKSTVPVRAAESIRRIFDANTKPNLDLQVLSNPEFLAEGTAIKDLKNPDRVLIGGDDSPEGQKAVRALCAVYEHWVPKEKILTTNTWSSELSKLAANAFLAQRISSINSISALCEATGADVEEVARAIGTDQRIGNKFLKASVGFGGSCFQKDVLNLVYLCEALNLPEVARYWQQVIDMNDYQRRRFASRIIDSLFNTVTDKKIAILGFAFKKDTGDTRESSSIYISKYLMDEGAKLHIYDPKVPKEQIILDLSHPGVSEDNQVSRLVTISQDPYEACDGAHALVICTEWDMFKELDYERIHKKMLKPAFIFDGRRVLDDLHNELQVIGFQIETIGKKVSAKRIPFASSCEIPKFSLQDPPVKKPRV

[5] = molecular target: Streptococcus pyogenes UDP-glucose dehydrogenase (Streptococcus pyogenes, UniProt P0C0F4); settings: cited from earlier work
SQV-4 [6] = molecular target: T4, SQV-4 (Caenorhabditis elegans, UniProt Q19905, R353H/T2A); assay type: biochemical, C. elegans; settings: bacterially expressed mutant protein
T4 construct: were used for PCR-amplification of the sqv-4 ORF, and the resulting product was digested with NcoI and XhoI and cloned into pET21d; made in house; host or cells: E. coli BL21 pLysS, pET21d; soluble fraction used without purification
From the text: as §1, §2

T1 sequence (Q9N491 25-330): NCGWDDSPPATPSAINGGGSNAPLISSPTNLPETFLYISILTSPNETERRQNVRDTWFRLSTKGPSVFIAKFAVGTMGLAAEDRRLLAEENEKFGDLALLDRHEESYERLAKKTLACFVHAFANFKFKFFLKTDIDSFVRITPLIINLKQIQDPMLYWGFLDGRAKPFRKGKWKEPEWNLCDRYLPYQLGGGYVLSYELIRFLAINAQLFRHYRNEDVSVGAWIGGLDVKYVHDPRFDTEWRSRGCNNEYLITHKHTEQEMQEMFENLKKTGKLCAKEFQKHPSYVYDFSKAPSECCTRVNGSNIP
T2 sequence (Q19905 whole entry T2A): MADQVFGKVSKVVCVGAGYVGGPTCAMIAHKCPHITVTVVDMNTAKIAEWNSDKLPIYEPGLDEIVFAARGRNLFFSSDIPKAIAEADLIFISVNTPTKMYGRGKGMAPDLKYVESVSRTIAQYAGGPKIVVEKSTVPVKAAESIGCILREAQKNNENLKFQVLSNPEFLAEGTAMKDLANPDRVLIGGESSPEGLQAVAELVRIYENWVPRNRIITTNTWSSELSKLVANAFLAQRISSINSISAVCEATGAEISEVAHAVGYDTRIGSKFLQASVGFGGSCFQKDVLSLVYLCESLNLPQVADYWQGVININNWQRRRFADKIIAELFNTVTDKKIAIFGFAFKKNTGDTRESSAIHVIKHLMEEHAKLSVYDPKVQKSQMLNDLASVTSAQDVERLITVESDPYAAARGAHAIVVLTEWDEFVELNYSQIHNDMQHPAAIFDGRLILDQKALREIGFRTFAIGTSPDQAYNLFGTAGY
T4 sequence (Q19905 whole entry T2A/R353H): as the sequence (Q19905 whole entry T2A) above, with R353H counted along it
Sequence of Streptococcus pyogenes UDP-glucose dehydrogenase (P0C0F4 whole entry): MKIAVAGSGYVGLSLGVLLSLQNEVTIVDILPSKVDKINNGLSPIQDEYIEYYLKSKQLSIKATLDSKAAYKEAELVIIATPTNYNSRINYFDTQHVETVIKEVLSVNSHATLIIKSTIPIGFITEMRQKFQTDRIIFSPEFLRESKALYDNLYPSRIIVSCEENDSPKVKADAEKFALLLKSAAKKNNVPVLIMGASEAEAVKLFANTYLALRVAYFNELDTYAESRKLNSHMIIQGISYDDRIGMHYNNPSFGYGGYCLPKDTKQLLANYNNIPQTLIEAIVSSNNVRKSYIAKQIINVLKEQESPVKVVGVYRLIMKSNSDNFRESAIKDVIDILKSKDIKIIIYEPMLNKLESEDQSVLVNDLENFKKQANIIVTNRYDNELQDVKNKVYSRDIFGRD

With `O[C@@H]1[C@@H](O)[C@H](OCc2ccc3ccccc3c2)OC[C@H]1O` [Xylβ1-O-naphthol, xylose-(β1)-O-naphthalenemethanol] the “acceptor for glycosylation by SQV-2” value [1] was “None of the other acceptors tested acted as an acceptor” and the “Enzyme Activity” value [1] was 0 pmol/h/mL medium.

In the case of `O[C@@H]1[C@@H](O)[C@H](OCc2ccccc2)OC[C@H]1O` [Xylβ1-O-Bn, xylose-(β1)-O-benzyl], the “acceptor for glycosylation by SQV-2” value [1] is reported as “None of the other acceptors tested acted as an acceptor” and the “Enzyme Activity” value [1] is reported as 0 pmol/h/mL medium.

For `NC(=O)c1ccc[n+]([C@@H]2O[C@H](COP(=O)([O-])OP(=O)(O)OC[C@H]3O[C@@H](n4cnc5c(N)ncnc54)[C@H](O)[C@@H]3O)[C@@H](O)[C@H]2O)c1` [NAD^+], the Km (SQV-4 [2]; double-reciprocal plot of initial velocities, bacterially expressed SQV-4) is listed as 200 µM, the Km [3] is listed as 50 µM and the Km [4] is listed as 900 µM. The Km [5] was 60 µM.

With `CC(=O)N[C@H]1[C@H](OCc2ccccc2)O[C@H](CO)[C@H](O)[C@@H]1O` [GalNAcβ1-O-Bn] the “Enzyme Activity” value [1] was 0 pmol/h/mL medium.

For `Nc1ncnc2c1ncn2[C@@H]1O[C@H](COP(=O)(O)OP(=O)(O)O[C@H]2O[C@H](CO)[C@@H](O)[C@H](O)[C@H]2O)[C@@H](O)[C@H]1O` [ADP-glucose], the “NAD+ reduction” value (SQV-4 [2]) was “undetectable”.

For `Nc1ccn([C@@H]2O[C@H](COP(=O)(O)OP(=O)(O)O[C@H]3O[C@H](CO)[C@@H](O)[C@H](O)[C@H]3O)[C@@H](O)[C@H]2O)c(=O)n1` [CDP-glucose], the “NAD+ reduction” value (SQV-4 [2]) was “undetectable”.

For `Cc1cn([C@H]2C[C@H](O)[C@@H](COP(=O)(O)OP(=O)(O)O[C@H]3O[C@H](CO)[C@@H](O)[C@H](O)[C@H]3O)O2)c(=O)[nH]c1=O` [TDP-glucose], the “NAD+ reduction” value (SQV-4 [2]) was “undetectable”.

For `C=CCCCCCCCCO[C@H]1O[C@H](CO[C@H]2O[C@H](CO)[C@@H](O)[C@H](O)[C@@H]2O)[C@@H](O)[C@H](O)[C@@H]1O` [Manα1,6Manα1-O—C10], the “Enzyme Activity” value [1] was 0 pmol/h/mL medium.

With `Nc1nc2c(ncn2[C@@H]2O[C@H](COP(=O)(O)OP(=O)(O)O[C@H]3O[C@H](CO)[C@@H](O)[C@H](O)[C@H]3O)[C@@H](O)[C@H]2O)c(=O)[nH]1` [GDP-glucose] the “NAD+ reduction” value (SQV-4 [2]) was “undetectable”.

For `OC[C@H]1O[C@@H](O[C@@H]2CO[C@@H](OCc3ccccc3)[C@H](O)[C@H]2O)[C@H](O)[C@@H](O)[C@H]1O` [Galβ1,4Xylβ1-O-Bn, galactose-(β1,4)-xylose(β1)-O-benzyl], the “acceptor for glycosylation by SQV-2” value [1] was “specifically catalyzed addition of galactose” and the “Enzyme Activity” value [1] was 2660 pmol/h/mL medium.

For `CC(=O)N[C@H]1[C@@H](OP(=O)(O)OP(=O)(O)OC[C@H]2O[C@@H](n3ccc(=O)[nH]c3=O)[C@H](O)[C@@H]2O)O[C@H](CO)[C@@H](O)[C@@H]1O` [UDP-N-acetyl-glucosamine], the “NAD+ reduction” value (SQV-4 [2]) was “undetectable”.

B1: SQV-4 protein that contained a histidine for arginine substitution at amino acid position 353: bacterially expressed mutant SQV-4 corresponding to the sqv-4 mutant allele n2827 (protein, UniProt Q19905 1-481, looked up, variant R353H)
UDP-glucose 6-dehydrogenase: MTDQVFGKVSKVVCVGAGYVGGPTCAMIAHKCPHITVTVVDMNTAKIAEWNSDKLPIYEPGLDEIVFAARGRNLFFSSDIPKAIAEADLIFISVNTPTKMYGRGKGMAPDLKYVESVSRTIAQYAGGPKIVVEKSTVPVKAAESIGCILREAQKNNENLKFQVLSNPEFLAEGTAMKDLANPDRVLIGGESSPEGLQAVAELVRIYENWVPRNRIITTNTWSSELSKLVANAFLAQRISSINSISAVCEATGAEISEVAHAVGYDTRIGSKFLQASVGFGGSCFQKDVLSLVYLCESLNLPQVADYWQGVININNWQRRRFADKIIAELFNTVTDKKIAIFGFAFKKNTGDTHESSAIHVIKHLMEEHAKLSVYDPKVQKSQMLNDLASVTSAQDVERLITVESDPYAAARGAHAIVVLTEWDEFVELNYSQIHNDMQHPAAIFDGRLILDQKALREIGFRTFAIGTSPDQAYNLFGTAGY
In the case of B1, the “decrease in UDP-glucose dehydrogenase activity” value (SQV-4 [6]) is reported as “greater than 20 fold”.

B2: wild-type SQV-4 protein: recombinant SQV-4 protein expressed in E. coli, soluble lysate fraction (protein, UniProt Q19905 1-481, looked up)
UDP-glucose 6-dehydrogenase: MTDQVFGKVSKVVCVGAGYVGGPTCAMIAHKCPHITVTVVDMNTAKIAEWNSDKLPIYEPGLDEIVFAARGRNLFFSSDIPKAIAEADLIFISVNTPTKMYGRGKGMAPDLKYVESVSRTIAQYAGGPKIVVEKSTVPVKAAESIGCILREAQKNNENLKFQVLSNPEFLAEGTAMKDLANPDRVLIGGESSPEGLQAVAELVRIYENWVPRNRIITTNTWSSELSKLVANAFLAQRISSINSISAVCEATGAEISEVAHAVGYDTRIGSKFLQASVGFGGSCFQKDVLSLVYLCESLNLPQVADYWQGVININNWQRRRFADKIIAELFNTVTDKKIAIFGFAFKKNTGDTRESSAIHVIKHLMEEHAKLSVYDPKVQKSQMLNDLASVTSAQDVERLITVESDPYAAARGAHAIVVLTEWDEFVELNYSQIHNDMQHPAAIFDGRLILDQKALREIGFRTFAIGTSPDQAYNLFGTAGY
With B2 the “UDP-glucose dehydrogenase activity increase” value (SQV-4 [2]; lysates vs lysates with vector alone or mutant SQV-4 protein) was “at least 20 fold”.

Reference: patent US7442501B2, “SQV nucleic acids and polypeptides” (Massachusetts Institute of Technology, priority 2002, dated 2008)
